Test results as given in PMC9781217, “Discovery of Novel and Selective G-Protein Coupled Receptor 120 (GPR120) Agonists for the Treatment of Type 2 Diabetes Mellitus” (Molecules, 2022).
Where two headings read alike, the source gives them in different places.

What was measured:
human GPR40 (hGPR40) = human GPR40 (hGPR40) (Homo sapiens, UniProt O14842); experiment: Calcium flux assay in hGPR40-expressing CHO cells
Procedure: (§1) A calcium flux assay was performed to assess the agonist activity of the test compounds against the hGPR120 (mGPR120) and hGPR40 (mGPR40) receptors. […] The medium in the wells was gently discarded, and the wells were washed with Hank’s balanced salt solution (HBSS; 100 μL per well). […] The cells were then washed thrice in HBSS and allowed to equilibrate for 10 min before conducting the assay. Test compounds dissolved in dimethyl sulfoxide were diluted in HBSS at various concentrations and added to Fluo-4 AM-containing cells, and intracellular Ca^2+ concentrations were measured using FlexStation3 Molecular Devices. The EC50 value of each compound was calculated using GraphPad Prism software (version 5.0; GraphPad Software, San Diego, CA, USA).

human GPR120 (hGPR120) = biological target: T1, human GPR120 (hGPR120) (Homo sapiens, UniProt Q5NUL3); experiment: Calcium flux assay in hGPR120-transfected CHO cells; conditions: for Selectivity: hGPR120 over hGPR40
T1 sequence (Q5NUL3 1-361): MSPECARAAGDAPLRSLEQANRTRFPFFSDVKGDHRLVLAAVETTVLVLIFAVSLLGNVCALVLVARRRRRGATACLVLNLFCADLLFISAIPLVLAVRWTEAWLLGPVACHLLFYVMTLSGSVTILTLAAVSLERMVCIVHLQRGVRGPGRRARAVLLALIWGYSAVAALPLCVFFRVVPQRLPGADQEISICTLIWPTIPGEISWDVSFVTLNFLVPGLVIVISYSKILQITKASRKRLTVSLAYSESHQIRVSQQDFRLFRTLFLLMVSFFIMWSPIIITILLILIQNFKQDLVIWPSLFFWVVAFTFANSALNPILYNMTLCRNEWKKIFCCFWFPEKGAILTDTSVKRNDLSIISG
Procedure: as §1

[1] = read-out: hGPR40 (EC50), calcium flux, hGPR40 CHO cells, mean of three determinations
[2] = read-out: hGPR120 (EC50), calcium flux, hGPR120 CHO cells, mean of three determinations

Chain of human GPR40 (hGPR40) (O14842 whole entry): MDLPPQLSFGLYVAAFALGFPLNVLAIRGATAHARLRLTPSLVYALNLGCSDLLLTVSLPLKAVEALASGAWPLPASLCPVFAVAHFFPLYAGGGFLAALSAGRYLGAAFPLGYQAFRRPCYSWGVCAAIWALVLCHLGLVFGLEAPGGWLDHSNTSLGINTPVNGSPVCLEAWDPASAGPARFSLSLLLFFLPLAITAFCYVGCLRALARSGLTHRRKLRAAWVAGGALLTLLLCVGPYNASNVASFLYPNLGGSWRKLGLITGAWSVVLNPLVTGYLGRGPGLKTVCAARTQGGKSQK

Row | Selectivity (human GPR120 (hGPR120)) | melting point | EC50 (human GPR40 (hGPR40)) | EC50 (human GPR120 (hGPR120)) | Molecule | EC50 (human GPR40 (hGPR40); [1]) | EC50 (human GPR120 (hGPR120); [2])
1 | – | – | – | – | 4-(2-fluoro-4-(((4-fluoro-3′,5′-dimethyl-[1,1′-biphenyl]-2-yl)oxy)methyl)phenoxy)butanoic acid [Compound 14h] | – | 422 nM
2 | 824.7 | 164 to 166 °C | 76200 nM | 92.4 nM | Cc1ccc(-c2ccc(F)cc2OCc2ccc(OCC(=O)O)cc2)cc1 [Compound 10a, 2-(4-(((4-fluoro-4′-methyl-[1,1′-biphenyl]-2-yl)oxy)methyl)phenoxy)acetic acid] | – | –
3 | – | 120 to 122 °C | – | 218 nM | Cc1ccc(-c2ccc(F)cc2OCc2ccc(OCCC(=O)O)cc2)cc1 [Compound 10b, 3-(4-(((4-fluoro-4′-methyl-[1,1′-biphenyl]-2-yl)oxy)methyl)phenoxy)propanoic acid] | – | –
4 | 875.6 | 106 to 108 °C | 113000 nM | 129 nM | Cc1ccc(-c2ccc(F)cc2OCc2ccc(OCCCC(=O)O)cc2)cc1 [Compound 10c, 4-(4-(((4-fluoro-4′-methyl-[1,1′-biphenyl]-2-yl)oxy)methyl)phenoxy)butanoic acid] | – | –
5 | 1391.5 | 124 to 126 °C | 144000 nM | 103 nM | Cc1ccc(-c2ccc(F)cc2OCc2ccc(OCCCCC(=O)O)cc2)cc1 [Compound 10d, 5-(4-(((4-fluoro-4′-methyl-[1,1′-biphenyl]-2-yl)oxy)methyl)phenoxy)pentanoic acid] | – | –
6 | 1019.5 | 128 to 130 °C | 141000 nM | 138 nM | Cc1ccc(-c2ccc(F)cc2OCc2ccc(OCC(=O)O)c(C)c2)cc1 [Compound 10e, 2-(4-(((4-fluoro-4′-methyl-[1,1′-biphenyl]-2-yl)oxy)methyl)-2-methylphenoxy)acetic acid] | – | –
7 | – | 125 to 127 °C | – | 268 nM | Cc1ccc(-c2ccc(F)cc2OCc2ccc(OCCC(=O)O)c(C)c2)cc1 [Compound 10f, 3-(4-(((4-fluoro-4′-methyl-[1,1′-biphenyl]-2-yl)oxy)methyl)-2-methylphenoxy)propanoic acid] | – | –
8 | – | – | – | 380 nM | Cc1ccc(-c2ccc(F)cc2OCc2ccc(OCCCC(=O)O)c(C)c2)cc1 [Compound 10g, 4-(4-(((4-fluoro-4′-methyl-[1,1′-biphenyl]-2-yl)oxy)methyl)-2-methylphenoxy)butanoic acid] | – | –
9 | – | – | – | 206 nM | Cc1ccc(-c2ccc(F)cc2OCc2ccc(OCCCCC(=O)O)c(C)c2)cc1 [Compound 10h, 5-(4-(((4-fluoro-4′-methyl-[1,1′-biphenyl]-2-yl)oxy)methyl)-2-methylphenoxy)pentanoic acid] | – | –
10 | 1129.5 | 90 to 92 °C | 87200 nM | 77.2 nM | Cc1ccc(-c2ccc(F)cc2OCc2ccc(OCC(=O)O)c(F)c2)cc1 [Compound 10i, 2-(2-fluoro-4-(((4-fluoro-4′-methyl-[1,1′-biphenyl]-2-yl)oxy)methyl)phenoxy)acetic acid] | – | –
11 | – | – | 85500 nM | 112 nM | Cc1ccc(-c2ccc(F)cc2OCc2ccc(OCCC(=O)O)c(F)c2)cc1 [Compound 10j, 3-(2-fluoro-4-(((4-fluoro-4′-methyl-[1,1′-biphenyl]-2-yl)oxy)methyl)phenoxy)propanoic acid] | – | –
12 | – | – | 94700 nM | 96.8 nM | Cc1ccc(-c2ccc(F)cc2OCc2ccc(OCCCCC(=O)O)c(F)c2)cc1 [Compound 10l, 5-(2-fluoro-4-(((4-fluoro-4′-methyl-[1,1′-biphenyl]-2-yl)oxy)methyl)phenoxy)pentanoic acid] | – | –
13 | 757.7 | 83 to 85 °C | 68500 nM | 90.4 nM | Cc1ccccc1-c1ccc(F)cc1OCc1ccc(OCCCC(=O)O)c(F)c1 [Compound 14a, 4-(2-fluoro-4-(((4-fluoro-2′-methyl-[1,1′-biphenyl]-2-yl)oxy)methyl)phenoxy)butanoic acid] | – | –
14 | – | – | 93200 nM | 82.5 nM | Cc1cccc(-c2ccc(F)cc2OCc2ccc(OCCCC(=O)O)c(F)c2)c1 [Compound 14b, 4-(2-fluoro-4-(((4-fluoro-3′-methyl-[1,1′-biphenyl]-2-yl)oxy)methyl)phenoxy)butanoic acid] | – | –
15 | – | 94 to 96 °C | – | 168 nM | O=C(O)CCCOc1ccc(COc2cc(F)ccc2-c2ccccc2F)cc1F [Compound 14c, 4-(4-(((2′,4-difluoro-[1,1′-biphenyl]-2-yl)oxy)methyl)-2-fluorophenoxy)butanoic acid] | – | –
16 | – | 103 to 105 °C | – | 260 nM | COc1ccc(-c2ccc(F)cc2OCc2ccc(OCCCC(=O)O)c(F)c2)cc1 [Compound 14e, 4-(2-fluoro-4-(((4-fluoro-4′-methoxy-[1,1′-biphenyl]-2-yl)oxy)methyl)phenoxy)butanoic acid] | – | –
17 | 600.0 | – | 95100 nM | 159 nM | Cc1ccc(-c2ccc(F)cc2OCc2ccc(OCCCC(=O)O)c(F)c2)c(C)c1 [Compound 14i] | – | –
18 | 419.6 | 105 to 107 °C | 78600 nM | 187 nM | Cc1ccc(-c2ccc(F)cc2OCc2ccc(OCCCC(=O)O)c(F)c2)c(Cl)c1 [Compound 14m, 4-(4-(((2′-chloro-4-fluoro-4′-methyl-[1,1′-biphenyl]-2-yl)oxy)methyl)-2-fluorophenoxy)butanoic acid] | – | –
19 | – | 92 to 94 °C | – | 313 nM | Cc1ccc(-c2ccc(F)cc2OCc2ccc(OCCCC(=O)O)c(F)c2)c(F)c1 [Compound 14n, 4-(4-(((2′,4-difluoro-4′-methyl-[1,1′-biphenyl]-2-yl)oxy)methyl)-2-fluorophenoxy)butanoic acid] | – | –

Row | Molecule | Selectivity (human GPR120 (hGPR120)) | melting point | EC50 (human GPR40 (hGPR40)) | EC50 (human GPR120 (hGPR120)) | EC50 (human GPR40 (hGPR40); [1]) | EC50 (human GPR120 (hGPR120); [2])
20 | 4-(2-fluoro-4-(((4-fluoro-2′,4′-dimethyl-[1,1′-biphenyl]-2-yl)oxy)methyl)phenoxy)butanoic acid [Compound 14f] | 604.0 | – | – | – | 103000 nM | 170 nM
21 | 4-(4-(((2′,4-difluoro-4′-methoxy-[1,1′-biphenyl]-2-yl)oxy)methyl)-2-fluorophenoxy)butanoic acid [Compound 14l] | 665.2 | – | – | – | 90800 nM | 136 nM
